{"source": "patent US12599134B2", "about": "“Herbicidal compositions comprising acetochlor” (BASF SE, priority 2024, dated 2026)", "key": {"[1]": {"test_system": "emerged weeds", "assay": "Post-emergence application in greenhouse trials (scale 0 to 100; expected value by Colby)", "format": "in vivo", "procedure": "(§1) In the examples below, using the method of S. R. Colby (1967) “Calculating synergistic and antagonistic responses of herbicide combinations”, Weeds 15, p. 22ff., the value E, which is expected if the activity of the individual active compounds is only additive, was calculated:\n(§2) [formula] • where • X=percent activity using active herbicide A at an application rate a; • Y=percent activity using active herbicide B (e.g. acetochlor) at an application rate b; • E=expected activity (in %) by A+B at application rates a+b.\n(§3) If the value found experimentally is higher than the value E calculated according to Colby, a synergistic effect is present.\nThe culture containers used were plastic pots containing loamy sand with approximately 3.0% of humus as substrate. The seeds of the test plants were sown separately for each species.\n[…] To this end, the test plants were either sown directly, and grown in the same containers, or they were first grown separately as seedlings and transplanted into the test containers a few days prior to treatment.\nDepending on the species, the plants were kept at 10-25° C. and 20-35° C., respectively. The test period extended over 2 to 4 weeks. During this time, the plants were tended and their response to the individual treatments was evaluated.\n(§4) Evaluation was carried out using a scale from 0 to 100. 100 means no emergence of the plants, or complete destruction of at least the above-ground parts, and 0 means no damage or normal course of growth. A good herbicidal activity is given at values of at least 70, and very good herbicidal activity is given at values of at least 85.\nHerbicide A-1 and acetochlor were, together with addition of 0.5% MSO (methylated sed oil) as adjuvant, formulated in water as distribution medium (water volume 200 l/ha) and sprayed with commercial flat fan nozzles.\nHerbicide A-1, acetochlor and mesotrione were, together with addition of 0.5 v/v % MSO (methylated sed oil) as adjuvant, formulated in water as distribution medium (water volume 200 l/ha) and sprayed with commercial flat fan nozzles.\nHerbicide A-1, acetochlor and topramezone were, together with addition of 0.5 v/v % MSO (methylated sed oil) as adjuvant, formulated in water as distribution medium (water volume 200 l/ha) and sprayed with commercial flat fan nozzles."}, "[2]": {"test_system": "emerged weeds", "assay": "Post-emergence application in field trials (expected value by Colby)", "format": "in vivo", "procedure": "as §1, §2, §3, §4\nHerbicide A-1 and acetochlor were, together with addition of 0.25% MSO (methylated sed oil) as adjuvant, formulated in water as distribution medium (water volume 200 l/ha) and sprayed with commercial flat fan nozzles."}}}
{"smiles": "CCOC(=O)COc1ccccc1Oc1nc(-n2c(=O)cc(C(F)(F)F)n(C)c2=O)c(F)cc1Cl", "note": "[A-1, ethyl 2-[2-[[3-chloro-5-fluoro-6-[3-methyl-2,6-dioxo-4-(trifluoromethyl)pyrimidin-1-yl]-2-pyridyl]oxy]phenoxy]acetate]", "values": [{"measurement": "% Herbicidal activity", "setting": "[1]; ABUTH, growth stage 15, 7 DAT, g ai/ha: A-1 0.5, B 200, C-24 50", "value": 85, "unit": "%"}, {"measurement": "% Herbicidal activity", "setting": "[1]; ABUTH, growth stage 15, 7 DAT, g ai/ha: A-1 0.5, B 200, C-25 3.125", "value": 85, "unit": "%"}, {"measurement": "% Herbicidal activity", "setting": "[1]; ABUTH, growth stage 15, 21 DAT, g ai/ha: A-1 0.25, B 200, C-24 50", "value": 60, "unit": "%"}, {"measurement": "% Herbicidal activity", "setting": "[1]; AVEFA, growth stage 11, 7 DAT, g ai/ha: A-1 2, B 200, C-25 3.125", "value": 55, "unit": "%"}, {"measurement": "% Herbicidal activity", "setting": "[1]; AVEFA, growth stage 11, 21 DAT, g ai/ha: A-1 2, B 200, C-24 50", "value": 30, "unit": "%"}, {"measurement": "% Herbicidal activity", "setting": "[1]; AVEFA, growth stage 11, 21 DAT, g ai/ha: A-1 2, B 200, C-25 3.125", "value": 30, "unit": "%"}, {"measurement": "% Herbicidal activity", "setting": "[1]; AVEFA, growth stage 12, 7 DAT, g ai/ha: A-1 2, B 400", "value": 75, "unit": "%"}, {"measurement": "% Herbicidal activity", "setting": "[1]; AVEFA, growth stage 12, 19 DAT, g ai/ha: A-1 2, B 400", "value": 75, "unit": "%"}, {"measurement": "% Herbicidal activity", "setting": "[1]; BRADC, growth stage 11, 21 DAT, g ai/ha: A-1 2, B 200, C-25 3.125", "value": 30, "unit": "%"}, {"measurement": "% Herbicidal activity", "setting": "[1]; COMBE, growth stage 13, 21 DAT, g ai/ha: A-1 1, B 200, C-24 50", "value": 80, "unit": "%"}, {"measurement": "% Herbicidal activity", "setting": "[1]; COMBE, growth stage 13, 21 DAT, g ai/ha: A-1 1, B 200, C-25 3.125", "value": 80, "unit": "%"}, {"measurement": "% Herbicidal activity", "setting": "[1]; ECHCG, growth stage 12, 21 DAT, g ai/ha: A-1 2, B 200, C-24 50", "value": 30, "unit": "%"}, {"measurement": "% Herbicidal activity", "setting": "[1]; ECHCG, growth stage 12, 21 DAT, g ai/ha: A-1 2, B 200, C-25 3.125", "value": 30, "unit": "%"}, {"measurement": "% Herbicidal activity", "setting": "[1]; ECHCG, growth stage 13, 7 DAT, g ai/ha: A-1 0.5, B 400", "value": 40, "unit": "%"}, {"measurement": "% Herbicidal activity", "setting": "[1]; ECHCG, growth stage 13, 19 DAT, g ai/ha: A-1 0.5, B 400", "value": 15, "unit": "%"}, {"measurement": "% Herbicidal activity", "setting": "[1]; ELEIN, growth stage 14, 7 DAT, g ai/ha: A-1 2, B 400", "value": 75, "unit": "%"}, {"measurement": "% Herbicidal activity", "setting": "[1]; ERICA, growth stage 19, 7 DAT, g ai/ha: A-1 2, B 200, C-25 3.125", "value": 80, "unit": "%"}, {"measurement": "% Herbicidal activity", "setting": "[1]; GLXMA, growth stage 18, 7 DAT, g ai/ha: A-1 1, B 200, C-25 3.125", "value": 90, "unit": "%"}, {"measurement": "% Herbicidal activity", "setting": "[1]; KCHSC, growth stage 29, 21 DAT, g ai/ha: A-1 1, B 200, C-25 3.125", "value": 60, "unit": "%"}, {"measurement": "% Herbicidal activity", "setting": "[1]; KCHSC, growth stage 29, 21 DAT, g ai/ha: A-1 2, B 200, C-25 3.125", "value": 75, "unit": "%"}, {"measurement": "% Herbicidal activity", "setting": "[1]; LOLMU, growth stage 11, 7 DAT, g ai/ha: A-1 2, B 200, C-25 3.125", "value": 10, "unit": "%"}, {"measurement": "% Herbicidal activity", "setting": "[1]; LOLMU, growth stage 11, 21 DAT, g ai/ha: A-1 2, B 200, C-25 3.125", "value": 10, "unit": "%"}, {"measurement": "% Herbicidal activity", "setting": "[1]; ZEAMX, growth stage 12, 21 DAT, g ai/ha: A-1 2, B 200, C-24 50", "value": 40, "unit": "%"}, {"measurement": "% Herbicidal activity", "setting": "[1]; ZEAMX, growth stage 12, 21 DAT, g ai/ha: A-1 2, B 200, C-25 3.125", "value": 40, "unit": "%"}, {"measurement": "% Herbicidal activity", "setting": "[2]; AMARE, growth stage 31-49, height 10-12 cm, 7 DAT, g ai/ha: A-1 12.5, B 1050", "value": 95, "unit": "%"}, {"measurement": "% Herbicidal activity", "setting": "[2]; AMARE, growth stage 31-49, height 10-12 cm, 21 DAT, g ai/ha: A-1 12.5, B 1050", "value": 80, "unit": "%"}, {"measurement": "% Herbicidal activity", "setting": "[2]; DIGSA, growth stage 22, height 10-15 cm, 7 DAT, g ai/ha: A-1 12.5, B 1050", "value": 75, "unit": "%"}, {"measurement": "% Herbicidal activity", "setting": "[2]; DIGSA, growth stage 22, height 10-15 cm, 21 DAT, g ai/ha: A-1 12.5, B 1050", "value": 70, "unit": "%"}, {"measurement": "% Herbicidal activity", "setting": "[2]; DIGSA, growth stage 22, height 10-15 cm, 42 DAT, g ai/ha: A-1 12.5, B 1050", "value": 70, "unit": "%"}, {"measurement": "% Herbicidal activity", "setting": "[2]; ECHCG, growth stage 22-23, height 19-30 cm, 7 DAT, g ai/ha: A-1 12.5, B 1050", "value": 55, "unit": "%"}, {"measurement": "% Herbicidal activity", "setting": "[2]; ECHCG, growth stage 22-23, height 19-30 cm, 7 DAT, g ai/ha: A-1 18, B 1050", "value": 55, "unit": "%"}, {"measurement": "% Herbicidal activity", "setting": "[2]; ECHCG, growth stage 22-23, height 19-30 cm, 21 DAT, g ai/ha: A-1 12.5, B 1050", "value": 50, "unit": "%"}, {"measurement": "% Herbicidal activity", "setting": "[2]; ECHCG, growth stage 22-23, height 19-30 cm, 21 DAT, g ai/ha: A-1 18, B 1050", "value": 55, "unit": "%"}, {"measurement": "% Herbicidal activity", "setting": "[2]; ECHCG, growth stage 22-23, height 19-30 cm, 42 DAT, g ai/ha: A-1 12.5, B 1050", "value": 45, "unit": "%"}, {"measurement": "% Herbicidal activity", "setting": "[2]; ECHCG, growth stage 22-23, height 19-30 cm, 42 DAT, g ai/ha: A-1 18, B 1050", "value": 50, "unit": "%"}, {"measurement": "% Herbicidal activity", "setting": "[2]; GLXMA, growth stage 12-13, height 7-11 cm, 42 DAT, g ai/ha: A-1 18, B 1050", "value": 85, "unit": "%"}, {"measurement": "% Herbicidal activity", "setting": "[2]; HORVW, growth stage 23-29, height 20-25 cm, 21 DAT, g ai/ha: A-1 12.5, B 1050", "value": 70, "unit": "%"}, {"measurement": "% Herbicidal activity", "setting": "[2]; HORVW, growth stage 23-29, height 20-25 cm, 21 DAT, g ai/ha: A-1 18, B 1050", "value": 80, "unit": "%"}, {"measurement": "% Herbicidal activity", "setting": "[2]; HORVW, growth stage 23-29, height 20-25 cm, 28 DAT, g ai/ha: A-1 12.5, B 1050", "value": 95, "unit": "%"}, {"measurement": "% Herbicidal activity", "setting": "[2]; HORVW, growth stage 23-29, height 20-25 cm, 28 DAT, g ai/ha: A-1 18, B 1050", "value": 95, "unit": "%"}, {"measurement": "% Herbicidal activity", "setting": "[2]; ZEAMX, growth stage 15-16, height 50-60 cm, 7 DAT, g ai/ha: A-1 12.5, B 1050", "value": 80, "unit": "%"}, {"measurement": "% Herbicidal activity", "setting": "[2]; ZEAMX, growth stage 15-16, height 50-60 cm, 21 DAT, g ai/ha: A-1 12.5, B 1050", "value": 70, "unit": "%"}, {"measurement": "% Herbicidal activity", "setting": "[2]; ZEAMX, growth stage 15-16, height 50-60 cm, 28 DAT, g ai/ha: A-1 12.5, B 1050", "value": 40, "unit": "%"}, {"measurement": "% Herbicidal activity", "setting": "[2]; ZEAMX, growth stage 15-16, height 50-60 cm, 28 DAT, g ai/ha: A-1 18, B 1050", "value": 70, "unit": "%"}]}
